# According to publication PMC5562778 (Archives of Toxicology, 2017):
# Where two headings read alike, the source gives them in different places.
# How the values were obtained:
# Chinese liver microsomes = experiment: Microsomal conversion of estragole by Chinese liver microsomes (NADPH); settings: for Catalytic efficiency (scaled V max / K m) / Scaled V max: formation from estragole, Chinese; for Scaled V max: scaled with microsomal protein yield 35 mg/(g tissue); for Catalytic efficiency (V max/K m × 1000) / K m / V max: formation of the metabolite from estragole, Chinese liver microsomes; for K m / V max: average ± SEM; for Catalytic efficiency for formation of the metabolite, lower in Chinese than in Caucasian samples / V max for formation of the metabolite, lower in Chinese than in Caucasian samples: in vitro, liver microsomes
# Protocol: (§1) The incubation mixtures contained (final concentrations) 3 mM NADPH and 1 mg/mL microsomal protein in 0.2 M Tris–HCl (pH 7.4). Incubations were performed for 10 min at substrate concentrations ranging from 25 to 1000 μM, after which the reaction was terminated by adding 25 μL ice-cold acetonitrile. Blank incubations were performed in the absence of the cofactor NADPH. All incubations were performed in triplicate. In the supporting materials 2, detailed information can be found (Table S1 can be used to keep track of detailed information).
# (§2) Before UPLC analysis, all samples were centrifuged for 5 min at 16,000 g to precipitate microsomal proteins. Supernatant of each sample was analyzed on UPLC using a BEH C18 (1.7 μm, 2.1 × 50 mm) column with a guard column and a diode array detector (Acquity, Waters). […] Table S1 can be used to keep track of detailed information.
# (§3) The apparent maximum velocity (V max) and the apparent Michaelis–Menten constant (K m) were determined by fitting the data to this equation using GraphPad Prism version 5.0 (GraphPad software, San Diego California USA).
# (§4) The incubation mixtures contained (final concentrations) 3 mM NADPH and 1 mg/ml microsomal protein in 0.2 M Tris-HCl (pH 7.4). […] Incubations were performed for 10 min at substrate concentrations ranging from 25 to 1000 μM, after which the reaction was terminated by adding 25 μl ice-cold acetonitrile. […] Blank incubations were performed in the absence of the cofactor NADPH. All incubations were performed in triplicate.
# The flow rate was 0.6 ml/min and the gradient started with 100 % ultrapure water.
# [1] = system: Caucasian liver microsomes; experiment: Microsomal conversion of estragole by Caucasian liver microsomes (NADPH); assay type: in vitro ADME, human; settings: for Catalytic efficiency (scaled V max / K m) / Scaled V max: formation from estragole, Caucasian; for Catalytic efficiency (scaled V max / K m): scaled to liver; for Scaled V max: scaled with microsomal protein yield 35 mg/(g tissue); for Catalytic efficiency (V max/K m × 1000) / K m / V max: formation of the metabolite from estragole, Caucasian liver microsomes; for K m / V max: average ± SEM
# Protocol: as §1
# as §2, with “information. […] 3′-Hydroxyanethole was quantified by comparison of the peak areas of the metabolite in the chromatograms obtained at a wavelength of 206 nm to the calibration curve of the synthesized reference compound (Agharahimi and LeBel [1995]; Drinkwater et al. [1976]; Iyer et al. [2003]; Luo et al. [1992]).” for “information.”
# as §3, §4
# The flow rate was 0.6 ml/min and the gradient started with 100 % ultrapure water. After 1 min, the amount of acetonitrile was increased to 10 % and kept at that level for 1 min, after which the percentage of acetonitrile was increased to 35 % in 2.5 min and then increased to 100 % over 0.5 minute and kept at 100 % acetonitrile for another 1 min, and finally back to the starting conditions.
# [2] = ref Barter et al. [2013], cited from earlier work
# [3] = PBK prediction, ref Barter et al. [2013], cited from earlier work
Structure (SMILES),Catalytic efficiency (scaled V max / K m) (Chinese liver microsomes; scaled to liver) [µL/h/g liver],Scaled V max (Chinese liver microsomes) [µmol/h/g liver],Catalytic efficiency (V max/K m × 1000) (Chinese liver microsomes),K m (Chinese liver microsomes) [µM],V max (Chinese liver microsomes),"Catalytic efficiency for formation of the metabolite, lower in Chinese than in Caucasian samples (Chinese liver microsomes; conversion of estragole) [fold]","V max for formation of the metabolite, lower in Chinese than in Caucasian samples (Chinese liver microsomes; conversion of estragole) [fold]",Catalytic efficiency (scaled V max / K m) [1] [µL/h/g liver],Scaled V max [1] [µmol/h/g liver],Catalytic efficiency (V max/K m × 1000) [1],K m [1] [µM],V max [1],"V max, lower in Chinese than in Caucasian liver incubations (Chinese liver microsomes; scaled kinetic constants (Table 3), conversion of estragole)","Scaled catalytic efficiency, lower for Chinese than Caucasian liver microsomes (Chinese liver microsomes; scaled to liver, conversion of estragole)","Experimentally observed clearance, lower in Chinese individuals than in Caucasian volunteers ([2]; intravenous) [%]","Experimentally observed clearance, lower in Chinese individuals than in Caucasian volunteers ([2]; oral) [%]","Predicted clearance, lower in Chinese than in Caucasian subjects ([3]; intravenous) [%]","Predicted clearance, lower in Chinese than in Caucasian subjects ([3]; oral) [%]","Experimentally observed clearance, lower in Chinese individuals than in Caucasian volunteers ([2]; route not stated) [%]","Predicted clearance, lower in Chinese than in Caucasian subjects ([3]; route not stated) [%]"
COc1ccc(/C=C/CO)cc1 [3′-Hydroxyanethole],1.5,0.7,0.71 µL/min/mg microsomal or S9 protein,450 ± 219,0.32 ± 0.07 nmol /min/mg microsomal or S9 protein,3.2,3.1,4.8,2.1,2.3 µL/min/mg microsomal or S9 protein,429 ± 80,0.99 ± 0.08 nmol /min/mg microsomal or S9 protein,,,,,,,,
C=CCc1ccc(O)cc1 [4-Allylphenol],2.7,0.3,1.3 µL/min/mg microsomal or S9 protein,115 ± 24,0.15 ± 0.01 nmol /min/mg microsomal or S9 protein,1.8,5.0,5.0,1.6,2.4 µL/min/mg microsomal or S9 protein,308 ± 71,0.74 ± 0.07 nmol /min/mg microsomal or S9 protein,,,,,,,,
"COc1ccc(CC2CO2)cc1 (centres unmarked) [Estragole-2′,3′-oxide]",5.5,0.9,2.6 µL/min/mg microsomal or S9 protein,161 ± 17,0.42 ± 0.01 nmol /min/mg microsomal or S9 protein,4.9,4.4,26.6,3.9,12.7 µL/min/mg microsomal or S9 protein,146 ± 15,1.85 ± 0.06 nmol /min/mg microsomal or S9 protein,fourfold,fivefold,,,,,,
Cc1nnc2n1-c1ccc(Cl)cc1C(c1ccccc1)=NC2 [alprazolam],,,,,,,,,,,,,,,20,21,21,22,,
Cc1ncc2n1-c1ccc(Cl)cc1C(c1ccccc1F)=NC2 [midazolam],,,,,,,,,,,,,,,19,62,24,17,,
COc1ccc2[nH]c([S+]([O-])Cc3ncc(C)c(OC)c3C)nc2c1 (centres unmarked) [omeprazole],,,,,,,,,,,,,,,,,,,75,51
CCCCNC(=O)NS(=O)(=O)c1ccc(C)cc1 [tolbutamide],,,,,,,,,,,,,,,,,,,2,25
